Assay results published in ChEMBL document CHEMBL3351570, “Design and synthesis of 2-phenylnaphthalenoids as inhibitors of DNA topoisomeraseIIα and antitumor agents” (Eur J Med Chem, 2014).
Activity calls are given as the source filed them. No cut-off for these calls is given here.

How the values were obtained:
[1] = tested on: A549; test: Cytotoxicity against human A549 cells after 72 hrs by sulforhodamine B assay; type: functional, cell-based; settings: A549, 72 h
[2] = tested on: HeLa; test: Cytotoxicity against human HeLa cells after 72 hrs by sulforhodamine B assay; type: functional, cell-based
[3] = tested on: MDA-MB-231; test: Cytotoxicity against human MDA-MB-231 cells after 72 hrs by sulforhodamine B assay; type: functional, cell-based; settings: MDA-MB-231, 72 h
[4] = biological target: DNA topoisomerase 2-alpha (Homo sapiens) (UniProt P11388); test: Inhibition of human recombinant topoisomerase 2alpha assessed as reduction in kDNA decatenation at 100 uM incubated for 30 mins by DNA gel electrophoresis
[5] = biological target: DNA topoisomerase 2-alpha (Homo sapiens) (UniProt P11388); test: Inhibition of human recombinant topoisomerase 2alpha assessed as reduction in pBR322 DNA relaxation at 100 uM incubated for 30 mins by DNA gel electrophoresis
[6] = biological target: T1, DNA topoisomerase (Bos taurus) (UniProt A0JN73); test: Inhibition of calf thymus DNA topoisomerase 1 assessed as reduction in pBR322 DNA relaxation at 100 uM incubated for 30 mins by DNA gel electrophoresis
T1 sequence (whole entry): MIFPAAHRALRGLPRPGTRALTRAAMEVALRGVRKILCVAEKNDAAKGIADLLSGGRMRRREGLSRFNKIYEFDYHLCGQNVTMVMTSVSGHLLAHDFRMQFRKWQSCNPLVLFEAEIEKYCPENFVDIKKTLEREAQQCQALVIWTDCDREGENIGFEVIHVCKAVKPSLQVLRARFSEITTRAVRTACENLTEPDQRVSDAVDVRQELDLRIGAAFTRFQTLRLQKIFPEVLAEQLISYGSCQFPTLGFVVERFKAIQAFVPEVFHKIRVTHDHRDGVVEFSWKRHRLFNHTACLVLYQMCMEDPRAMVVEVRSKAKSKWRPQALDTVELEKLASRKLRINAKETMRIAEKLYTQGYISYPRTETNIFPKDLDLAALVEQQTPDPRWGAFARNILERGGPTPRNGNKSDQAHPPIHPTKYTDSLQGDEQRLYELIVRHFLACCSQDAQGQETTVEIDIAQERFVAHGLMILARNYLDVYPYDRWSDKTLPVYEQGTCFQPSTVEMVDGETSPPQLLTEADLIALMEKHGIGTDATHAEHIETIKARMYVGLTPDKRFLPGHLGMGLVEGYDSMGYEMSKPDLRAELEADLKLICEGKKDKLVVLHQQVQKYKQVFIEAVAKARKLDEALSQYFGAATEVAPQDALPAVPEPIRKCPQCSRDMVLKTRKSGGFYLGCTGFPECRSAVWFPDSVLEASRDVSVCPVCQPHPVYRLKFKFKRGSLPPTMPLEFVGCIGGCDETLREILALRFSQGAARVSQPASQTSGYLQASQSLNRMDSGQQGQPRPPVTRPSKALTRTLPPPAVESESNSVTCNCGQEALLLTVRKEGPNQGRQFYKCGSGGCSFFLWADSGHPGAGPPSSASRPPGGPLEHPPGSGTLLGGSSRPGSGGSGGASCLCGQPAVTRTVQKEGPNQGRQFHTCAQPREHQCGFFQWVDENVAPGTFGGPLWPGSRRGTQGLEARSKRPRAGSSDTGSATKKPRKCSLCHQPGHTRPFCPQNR

[7] = tested on: MDA-MB-231; test: Increase in histone H3 Ser10 phosphorylation in human MDA-MB-231 cells at 10 uM after 24 hrs by Western blot method; type: functional, cell-based
[8] = biological target: DNA topoisomerase 2-alpha (Homo sapiens) (UniProt P11388); settings: 100 uM
Description: Inhibition of human recombinant topoisomerase 2alpha assessed as increase in linear DNA using circular supercoiled plasmid DNA substrate at 100 uM incubated for 30 mins by ethidium bromide staining based DNA gel electrophoresis

[9] = tested on: MDA-MB-231; test: Induction of DNA damage in human MDA-MB-231 cells assessed as increase in ATM S1981 phosphorylation at 10 uM after 24 hrs by Western blot method; type: functional, cell-based
[10] = tested on: MDA-MB-231; test: Antitumor activity against human MDA-MB-231 cells xenografted in BALB/c-nu mouse assessed as reduction in tumor weight at 20 mg/kg, iv dosed every other day for 15 days; type: functional; settings: MDA-MB-231, 360 h
[11] = tested on: Mus musculus; test: Toxicity in nude BALB/c mouse xenografted with human MDA-MB-231 cells assessed as reduction in body weight at 20 mg/kg, iv dosed every other day for 15 days (reference value: 24.2 g); type: organism-based; parameters: dose 20 mg/kg, route intravenous; settings: in vivo, 360 h
[12] = tested on: Nucleic Acid; test: Induction of DNA intercalation in Escherichia coli pBR322 DNA at 100 uM by DNA gel electrophoresis; type: nucleic-acid assay

Sequence of DNA topoisomerase 2-alpha (Homo sapiens) (P11388 whole entry): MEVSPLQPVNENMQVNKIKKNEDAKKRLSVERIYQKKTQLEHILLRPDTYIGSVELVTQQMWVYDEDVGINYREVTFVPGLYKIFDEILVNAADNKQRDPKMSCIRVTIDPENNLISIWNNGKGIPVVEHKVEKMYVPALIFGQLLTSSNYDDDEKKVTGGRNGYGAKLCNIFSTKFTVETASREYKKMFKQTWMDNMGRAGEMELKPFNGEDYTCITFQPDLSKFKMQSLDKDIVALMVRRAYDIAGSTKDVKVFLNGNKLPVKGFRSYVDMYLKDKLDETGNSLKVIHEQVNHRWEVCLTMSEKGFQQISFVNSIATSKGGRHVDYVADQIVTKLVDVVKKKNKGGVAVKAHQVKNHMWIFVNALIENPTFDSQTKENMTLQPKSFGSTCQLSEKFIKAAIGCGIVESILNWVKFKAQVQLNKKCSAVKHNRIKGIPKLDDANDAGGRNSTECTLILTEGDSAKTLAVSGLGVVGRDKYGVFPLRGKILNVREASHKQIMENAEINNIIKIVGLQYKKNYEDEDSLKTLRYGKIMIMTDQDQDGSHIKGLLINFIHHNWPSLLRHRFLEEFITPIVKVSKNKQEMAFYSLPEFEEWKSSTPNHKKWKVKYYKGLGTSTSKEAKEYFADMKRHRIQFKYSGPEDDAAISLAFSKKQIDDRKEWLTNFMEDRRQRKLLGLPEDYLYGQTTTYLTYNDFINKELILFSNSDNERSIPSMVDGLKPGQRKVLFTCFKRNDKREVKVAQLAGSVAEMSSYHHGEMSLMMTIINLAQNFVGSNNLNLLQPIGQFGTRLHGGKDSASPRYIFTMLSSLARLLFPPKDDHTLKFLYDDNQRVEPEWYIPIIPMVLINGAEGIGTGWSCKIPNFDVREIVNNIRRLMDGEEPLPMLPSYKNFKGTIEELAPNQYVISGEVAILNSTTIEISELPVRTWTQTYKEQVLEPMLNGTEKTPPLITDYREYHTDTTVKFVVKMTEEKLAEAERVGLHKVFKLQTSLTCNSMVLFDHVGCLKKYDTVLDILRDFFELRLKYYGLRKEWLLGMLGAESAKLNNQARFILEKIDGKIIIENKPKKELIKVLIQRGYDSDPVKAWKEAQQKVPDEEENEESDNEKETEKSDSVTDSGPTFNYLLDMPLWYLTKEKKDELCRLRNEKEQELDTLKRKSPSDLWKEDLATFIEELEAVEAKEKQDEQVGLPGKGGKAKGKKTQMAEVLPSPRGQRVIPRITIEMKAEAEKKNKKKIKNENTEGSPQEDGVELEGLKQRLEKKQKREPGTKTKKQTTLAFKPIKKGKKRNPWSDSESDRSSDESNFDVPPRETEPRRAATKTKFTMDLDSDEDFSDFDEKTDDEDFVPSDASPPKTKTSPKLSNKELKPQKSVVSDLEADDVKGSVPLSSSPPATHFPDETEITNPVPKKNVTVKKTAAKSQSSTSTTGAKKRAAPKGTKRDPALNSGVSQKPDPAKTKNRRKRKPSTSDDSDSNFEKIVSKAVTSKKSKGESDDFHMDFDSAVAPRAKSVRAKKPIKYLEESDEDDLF

SMILES	IC50 [1]	IC50 [2]	IC50 [3]	other results
COc1ccc2cc(-c3ccc([N+](=O)[O-])c(C(F)(F)F)c3)ccc2c1	> 20 µM	> 20 µM	165 µM	
COc1ccc2cc(-c3ccc(O)cc3)ccc2c1	> 20 µM	> 20 µM	> 800 µM	
COc1ccc2cc(-c3ccc(O)c(C(=O)O)c3)ccc2c1	> 20 µM	> 20 µM	93.3 µM	
COc1ccc2cc(-c3cc(C=O)c(O)c(OC)c3)ccc2c1	> 20 µM	> 20 µM	61.8 µM	
O=Cc1ccc(O)c(-c2ccc3cc(O)ccc3c2)c1	10.5 µM	5 µM	3.2 µM	inhibition [4]: Active; inhibition [5]: Active
Oc1ccc(-c2ccc3cc(O)ccc3c2)cc1	11.4 µM	3.1 µM	10.5 µM	
COc1ccc2cc(-c3ccc(N)cc3)ccc2c1	> 20 µM	> 20 µM	168 µM	
COC(=O)c1ccc(C)c(-c2ccc3cc(OC)ccc3c2)c1	> 20 µM	20 µM	> 800 µM	inhibition [4]: Active
COc1ccc2cc(-c3cc(C(C)=O)c(O)c([N+](=O)[O-])c3)ccc2c1	> 20 µM	> 20 µM	19.8 µM	inhibition [4]: Active
COc1cc(-c2ccc3cc(O)ccc3c2)cc(C=O)c1O	1.1 µM	1.8 µM	0.5 µM	inhibition [4]: Active; inhibition [6]: Active; inhibition [5]: Active
COc1ccc2cc(-c3cccc(C(F)(F)F)c3)ccc2c1	> 20 µM	> 20 µM	455 µM	
CC[C@@]1(O)C(=O)OCc2c1cc1n(c2=O)Cc2cc3ccccc3nc2-1				inhibition [6]: Active
COC(=O)c1ccc(O)c(-c2ccc3cc(O)ccc3c2)c1	11.6 µM	2.2 µM	7.6 µM	inhibition [5]: Active
COC(=O)c1ccc(O)c(-c2ccc3cc(OC)ccc3c2)c1	> 20 µM	> 20 µM	36.5 µM	
OCc1ccc(-c2ccc3cc(O)ccc3c2)cc1	> 20 µM	2.2 µM	29.5 µM	
COC(=O)C(O)c1ccc(-c2ccc3cc(OC)ccc3c2)cc1 (stereo not drawn)	> 20 µM	> 20 µM	24.2 µM	
COC(=O)c1ccc(-c2ccc3cc(OC)ccc3c2)cc1	> 20 µM	> 20 µM	> 800 µM	
COc1ccc2cc(-c3ccc(C(F)(F)F)cc3)ccc2c1	> 20 µM	> 20 µM	54.9 µM	
COc1ccc(-c2ccc3cc(O)ccc3c2)cc1OC	20 µM	4.8 µM	16.8 µM	
COc1cc([C@@H]2c3cc4c(cc3[C@@H](O[C@@H]3O[C@@H]5CO[C@@H](C)O[C@H]5[C@H](O)[C@H]3O)[C@H]3COC(=O)[C@H]23)OCO4)cc(OC)c1O [ETOPOSIDE]	13.8 µM	4.36 µM	3.67 µM	Activity [7]: inactive; inhibition [8]: Active; Activity [9]: Active; inhibition [5]: Active; inhibition in vivo at 20 mg/kg [10]: 69%; Activity [11]: 20.1 g
COC(=O)Cc1cc(-c2ccc3cc(OC)ccc3c2)ccc1O	> 20 µM	> 20 µM	> 800 µM	
CC(=O)c1cc(-c2ccc3cc(O)ccc3c2)cc([N+](=O)[O-])c1O	4.2 µM	2.1 µM	1.4 µM	inhibition [4]: Active; inhibition [6]: Active; inhibition [5]: Active
COc1ccc2cc(-c3ccc(CO)cc3)ccc2c1	7.9 µM	9.1 µM	152 µM	
COc1cccc2c1C(=O)c1c(O)c3c(c(O)c1C2=O)C[C@@](O)(C(=O)CO)C[C@@H]3O[C@H]1C[C@H](N)[C@H](O)[C@H](C)O1				Activity [12]: Active
COc1ccc2cc(-c3cc(C=O)ccc3O)ccc2c1	14.1 µM	> 20 µM	25.3 µM	
